Laboratory results: patent US20250376507A1, “NOVEL TUMOR ANTIGEN-TARGETING ANTICANCER AGENT” (INDUSTRY FOUNDATION OF CHONNAM NATIONAL UNIVERSITY, priority 2022, published 2025)

Legend:
CT-26 cells = assay: Cell viability (CCK-8) of CT-26 cells; type: cell-based, mouse; details: 4 h pretreatment with anticancer agent alone
Description: CT-26 and MC-38 cells (10^4 cells per well) were seeded into three wells of a 96-well plate and incubated at 37° C. The next day, the culture medium was replaced with 100 μL of fresh medium containing the above concentrations of anticancer agents. After incubation at 37° C. for 4 h, the culture medium was removed and the cells were washed three times with PBS. […] Finally, CCK-8 reagent (10 μL/well) was added for 3 h at 37° C., and the amount of color in each sample was measured at OD450.

CT-26 tumor = assay: In vivo anti-cancer efficacy in CT-26 tumor-bearing mice
Description: CT-26 and MC-38 tumor cells (106 in 100 μL PBS) were implanted subcutaneously into the right flanks of 6-week-old BALB/c and C57BL/6 female mice (Orient company, Korea), respectively. When the tumors reached about 100 mm^3, the tumor-bearing mice were injected intraperitoneally with anticancer agents (15 mg/kg GEM, 10 mg/kg DOX or 2 mg/kg MTX) three times every 2 days. Simultaneously, the mice were injected intravenously with the PASylated recombinant proteins of the present invention five times every 2 days. The length (L), width (W), and height (H) of each tumor were recorded every 3 days using a digital caliper, and the tumor volume (mm3) was calculated using the following formula (L×H×W)/2. Mice were euthanized when tumors were ˜1,500 mm^3 and all animal experiments were performed in accordance with the general principles and procedures outlined in the National Institutes of Health Guidelines, and all protocols were approved by the Chonnam National University Animal Care and Use Committee (permit number: HCRL 16-001).

Structure (SMILES) | decrease in cell viability by pretreatment with anticancer agents (CT-26 cells) | average tumor weight (CT-26 tumor; day 12, combination with DOX, 8 IU/mouse) | tumor growth (CT-26 tumor; dose-finding study, DOX 10 mg/kg i.p. x3, CRT3LP i.v. x5, n=3)
O=C1c2c(O)ccc(O)c2C(=O)c2c(NCCNCCO)ccc(NCCNCCO)c21 [MTX, mitozantrone, reference compound] | 62.3% | – | –
COc1cccc2c1C(=O)c1c(O)c3c(c(O)c1C2=O)C[C@@](O)(C(=O)CO)C[C@@H]3O[C@H]1C[C@H](N)[C@H](O)[C@H](C)O1 [DOX, doxorubicin, reference compound] | 57.9% | 304.8 mg | grew more slowly than untreated tumors
Nc1ccn([C@@H]2O[C@H](CO)[C@@H](O)C2(F)F)c(=O)n1 [GEM, gemcitabine, reference compound] | 45.1% | – | –
